Source: USRE49735E1 (BRISTOL-MYERS SQUIBB COMPANY, priority 2010, dated 2023)
“And” between values parts separate entries of the source, which are not always exact repeats. Equal entries are not always repeated.

The molecules below were run against human mGluR5A (Homo sapiens, UniProt P41594) (assay: mGluR5 FLIPR Assay). Conditions: positive modulator activity; HEK293 (ZF) cells with human mGluR5A and rat GLAST; Ca++ response to ~EC10 glutamate.
Sequence of human mGluR5A (P41594 21-1180 isoform P41594-2): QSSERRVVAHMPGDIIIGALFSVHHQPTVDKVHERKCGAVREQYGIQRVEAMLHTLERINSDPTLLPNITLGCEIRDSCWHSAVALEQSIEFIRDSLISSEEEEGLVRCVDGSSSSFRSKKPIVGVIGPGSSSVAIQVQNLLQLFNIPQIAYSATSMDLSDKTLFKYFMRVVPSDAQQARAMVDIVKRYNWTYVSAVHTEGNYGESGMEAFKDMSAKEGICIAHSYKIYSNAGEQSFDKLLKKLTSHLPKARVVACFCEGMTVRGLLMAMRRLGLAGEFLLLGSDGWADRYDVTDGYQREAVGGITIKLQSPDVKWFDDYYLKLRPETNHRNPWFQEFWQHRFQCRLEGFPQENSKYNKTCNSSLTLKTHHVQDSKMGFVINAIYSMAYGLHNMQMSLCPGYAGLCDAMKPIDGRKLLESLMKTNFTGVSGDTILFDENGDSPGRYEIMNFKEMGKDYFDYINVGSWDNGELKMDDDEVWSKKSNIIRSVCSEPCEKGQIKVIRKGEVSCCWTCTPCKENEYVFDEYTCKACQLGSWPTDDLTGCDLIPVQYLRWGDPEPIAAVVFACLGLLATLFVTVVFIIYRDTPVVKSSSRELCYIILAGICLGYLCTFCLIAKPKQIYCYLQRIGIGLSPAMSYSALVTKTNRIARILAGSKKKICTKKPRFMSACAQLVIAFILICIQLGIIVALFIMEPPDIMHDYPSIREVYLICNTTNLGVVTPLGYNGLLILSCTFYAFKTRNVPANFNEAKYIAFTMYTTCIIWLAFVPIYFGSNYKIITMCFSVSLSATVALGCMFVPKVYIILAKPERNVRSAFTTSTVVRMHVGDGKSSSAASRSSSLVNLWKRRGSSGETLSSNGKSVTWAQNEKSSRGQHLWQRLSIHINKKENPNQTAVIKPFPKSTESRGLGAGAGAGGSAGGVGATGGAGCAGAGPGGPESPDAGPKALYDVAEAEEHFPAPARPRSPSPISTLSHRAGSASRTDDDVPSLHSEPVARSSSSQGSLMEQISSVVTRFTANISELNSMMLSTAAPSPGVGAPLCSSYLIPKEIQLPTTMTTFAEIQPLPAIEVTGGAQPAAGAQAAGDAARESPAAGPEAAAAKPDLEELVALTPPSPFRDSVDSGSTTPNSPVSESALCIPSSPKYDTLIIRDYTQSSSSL
Format: cell-based
`O=C1N[C@@H](c2cccc(C#Cc3ccccc3)c2)[C@H](c2cccnc2)O1` [Example 118, (4S,5S)-4-(3-(phenylethynyl)phenyl)-5-(pyridin-3-yl)oxazolidin-2-one] was tested, and the EC50 was over 1000 nM. Molecule `C[C@@]1(c2cncc(C#Cc3ccccc3)c2)NC(=O)O[C@H]1c1ccc(F)cc1` [Example 220] has an EC50 of 100 to 1000 nM. Molecule `O=C1N[C@H](c2cccc(C#Cc3ccccc3)n2)[C@@H](c2ccccc2)O1` (single isomer, unassigned) [Example 10] has an EC50 of under 100 nM. `COc1cccc([C@H]2OC(=O)N[C@@H]2c2cccc(C#Cc3ccc(F)nc3)c2)c1` [Example 69] showed an EC50 of under 100 nM. Molecule `O=C1N[C@@H](c2cccc(C#Cc3ccccc3)c2)[C@H](c2nc(-c3cccnc3)no2)O1` [Example 165] has an EC50 of over 1000 nM. In the case of `O=C1N[C@@H](c2cncc(C#Cc3ccccc3)c2)[C@H](c2cccnc2)O1` [Example 199], the EC50 is reported as over 1000 nM. `COc1cccc([C@H]2OC(=O)N[C@@H]2c2cncc(C#Cc3csc(C)n3)c2)c1` (single isomer, unassigned) [Example 31] showed an EC50 of over 1000 nM. `C[C@@]1(c2ccccc2)OC(=O)N[C@@H]1c1cncc(C#Cc2ccccc2)c1` [Example 228] was tested, and the EC50 was over 1000 nM. In the case of `O=C1N[C@H](c2cccc(C#Cc3ccccc3)n2)[C@@H](c2cc(F)cc(F)c2)O1` (single isomer, unassigned) [Example 315], the EC50 is reported as over 1000 nM. `O=C1N[C@H](c2cccc(C#Cc3cccnc3)c2)[C@@H](c2ccncn2)O1` [Example 241] gave an EC50 of over 1000 nM. For `Cn1nnc([C@H]2OC(=O)N[C@@H]2c2cccc(C#Cc3ccccc3)c2)n1` [Example 169, (4R,5S)-5-(2-Methyl-2H-tetrazol-5-yl)-4-(3-(phenylethynyl)phenyl)oxazolidin-2-one], the EC50 was over 1000 nM. Molecule `O=C1N[C@H](c2cc(C#Cc3ccnc(C4CC4)c3)cnc2F)[C@@H](c2ccc(Cl)cc2)O1` [Example 150, (4R,5R)-5-(4-Chlorophenyl)-4-(5-((2-cyclopropylpyridin-4-yl)ethynyl)-2-fluoropyridin-3-yl)oxazolidin-2-one] has an EC50 of over 1000 nM. Work on `COc1cccc([C@@H]2OC(=O)N[C@H]2c2cccc(C#Cc3ccc(F)cc3)c2)c1` [Example 132, (4S,5S)-4-(3-((4-fluorophenyl)ethynyl)phenyl)-5-(3-methoxyphenyl)oxazolidin-2-one] yielded an EC50 of over 1000 nM. Molecule `O=C1N[C@H](c2cncc(C#Cc3ccccn3)c2)[C@@H](c2cc(F)cc(F)c2)O1` [Example 177] has an EC50 of over 1000 nM. With `CC(C)(C)c1ccc(C#Cc2cncc([C@H]3NC(=O)O[C@@H]3c3cc(F)ccc3F)c2)cc1` [Example 384, (4R,5R)-4-(5-((4-tert-butylphenyl)ethynyl)pyridin-3-y1)-5-(2,5-difluorophenyl)oxazolidin-2-one] the EC50 was over 1000 nM. Molecule `COc1cccc([C@H]2OC(=O)N[C@@H]2c2cccc(C#Cc3ccnc(Cl)c3)c2)c1` [Example 57, (4R,5R)-4-(3-((2-Chloropyridin-4-yl)ethynyl)phenyl)-5-(3-methoxyphenyl)oxazolidin-2-one] has an EC50 of over 30000 nM. `O=C1N[C@H](c2nccc(C#Cc3ccccc3)n2)[C@@H](c2cccc(F)c2)O1` [Example 273] was tested, and the EC50 was over 3000 nM. `C[C@@]1(c2cncc(C#Cc3ccccc3)c2)NC(=O)O[C@H]1c1cc(F)ccc1F` (single isomer, unassigned) [Example 406] showed an EC50 of 100 to 1000 nM. For `COc1cccc([C@H]2OC(=O)N[C@@H]2c2cccc(C#Cc3cccc(F)c3)c2)c1` [Example 133, (4R,5R)-4-(3-((3-fluorophenyl)ethynyl)phenyl)-5-(3-methoxyphenyl)oxazolidin-2-one], the EC50 was under 100 nM. `O=C1N[C@H](c2cncc(C#Cc3ccccc3F)c2)[C@@H](c2cccc(F)c2F)O1` [Example 284] showed an EC50 of under 100 nM. `O=C1N[C@H](c2nccc(C#Cc3ccccc3)n2)[C@@H](c2cccc(F)c2)O1` (racemic) [Example 272] gave an EC50 of over 1000 nM. With `O=C1N[C@@H](c2cccc(C#Cc3ccccn3)n2)[C@H](c2ccccc2)O1` (single isomer, unassigned) [Example 25] the EC50 was over 1000 nM. For `Cc1ccc([C@@H]2OC(=O)N[C@H]2c2cccc(C#Cc3ccccc3)c2)cc1C` (racemic) [Example 100, Trans-5-(3,4-dimethylphenyl)-4-(3-(phenylethynyl)phenyl)oxazolidin-2-one], the EC50 was 100 to 1000 nM. Molecule `O=C1N[C@H](c2cccc(C#Cc3ccc(F)cc3)n2)[C@@H](c2ccccc2)O1` (single isomer, unassigned) [Example 16] has an EC50 of under 100 nM. In the case of `O=C1N[C@H](c2cncc(C#Cc3ccccc3F)c2)[C@@H](c2cc(F)ccc2F)O1` [Example 282], the EC50 is reported as under 100 nM. `COc1ncc(C#Cc2ccccc2)cc1[C@H]1NC(=O)O[C@@H]1c1cccc(F)c1` [Example 300, (4R,5R)-5-(3-Fluorophenyl)-4-(2-methoxy-5-(phenylethynyl)pyridin-3-yl)oxazolidin-2-one] was tested, and the EC50 was under 100 nM. With `O=C1N[C@H](c2cncc(C#Cc3cc(Cl)cc(Cl)c3)c2)[C@@H](c2cc(F)ccc2F)O1` [Example 389, (4R,5R)-4-(5-((3,5-Dichlorophenyl)ethynyl)pyridin-3-yl)-5-(2,5-difluorophenyl)oxazolidin-2-one] the EC50 was over 1000 nM. Work on `C[C@@]1(c2cccc(C#Cc3ccccc3)n2)NC(=O)O[C@H]1c1ccccc1F` (single isomer, unassigned) [Example 379] yielded an EC50 of over 1000 nM. In the case of `Cn1nccc1[C@H]1OC(=O)N[C@@H]1c1cncc(C#Cc2ccccc2)c1` [Example 342, (4R,5S)-5-(1-methyl-1H-pyrazol-5-yl)-4-(5-(phenylethynyl)pyridin-3-yl)oxazolidin-2-one], the EC50 is reported as under 100 nM. Molecule `COc1cccc([C@H]2OC(=O)N[C@@H]2c2cncc(C#Cc3ccccn3)c2)c1` (single isomer, unassigned) [Example 29] has an EC50 of over 1000 nM. With `Cc1ccc([C@@H]2OC(=O)N[C@H]2c2cccc(C#Cc3ccccc3)c2)cc1` [Example 108] the EC50 was over 1000 nM. Work on `COc1cccc([C@H]2OC(=O)N[C@@H]2c2ccnc(C#Cc3ccccc3)c2)c1` (single isomer, unassigned) [Example 36] yielded an EC50 of over 1000 nM. In the case of `COc1cccc([C@@H]2OC(=O)N[C@H]2c2ccnc(C#Cc3ccccc3)c2)c1` (single isomer, unassigned) [Example 37], the EC50 is reported as under 100 nM. `Cc1cccc(C#Cc2cncc([C@H]3NC(=O)O[C@@H]3c3cccc(F)c3)c2)c1` [Example 401, (4R,5R)-5-(3-fluorophenyl)-4-(5-(m-tolylethynyl)pyridin-3-yl)oxazolidin-2-one] showed an EC50 of under 100 nM. For `COc1cccc([C@H]2OC(=O)N[C@@H]2c2cccc(C#Cc3ccnc(C)c3)c2)c1` [Example 60, (4R,5R)-5-(3-Methoxyphenyl)-4-(3-((2-methylpyridin-4-yl)ethnyl)phenyl)oxazolidin-2-one], the EC50 was over 1000 nM. For `Cc1ccccc1C#Cc1cncc([C@H]2NC(=O)O[C@@H]2c2cc(F)ccc2F)c1` [Example 390, (4R,5R)-5-(2,5-difluorophenyl)-4-(5-(o-tolylethynyl)pyridin-3-yl)oxazolidin-2-one], the EC50 was 100 to 1000 nM. Molecule `C[C@]1(c2cc(F)ccc2F)OC(=O)N[C@H]1c1cncc(C#Cc2ccccc2)c1` [Example 291] has an EC50 of 100 to 1000 nM. `COc1cccc([C@H]2OC(=O)N[C@@H]2c2cccc(C#Cc3cncc(Cl)c3)c2)c1` [Example 50, (4R,5R)-4-(3-((5-Chloropyridin-3-yl)ethnyl)phenyl)-5-(3-methoxyphenyl)oxazolidin-2-one] was tested, and the EC50 was 100 to 1000 nM and 353 nM. For `N#Cc1cccc(C#Cc2cncc([C@H]3NC(=O)O[C@@H]3c3ccc(F)c(F)c3)c2)c1` [Example 176], the EC50 was < 100 nM and 5.2 nM. Work on `COc1cccc([C@@H]2OC(=O)N[C@H]2c2cccc(C#Cc3ccccc3)c2)c1` [Example 2, (4S,5S)-5-(3-Methoxyphenyl)-4-(3-(phenylethynyl)phenyl)oxazolidin-2-one] yielded an EC50 of over 30000 nM. Work on `O=C1N[C@@H](c2cncc(C#Cc3ccccc3)c2)[C@H](c2cccc(Cl)c2)O1` (single isomer, unassigned) [Example 361] yielded an EC50 of over 1000 nM. `O=C1N[C@H](c2cccc(C#Cc3ccccc3)n2)[C@@H](c2ccccc2F)O1` (single isomer, unassigned) [Example 307] showed an EC50 of over 1000 nM. With `O=C1N[C@@H](c2cccc(C#Cc3cccnc3)c2)[C@H](c2ccncn2)O1` [Example 240] the EC50 was over 1000 nM. For `O=C1N[C@H](c2cncc(C#Cc3ccccc3)c2)[C@@H](c2cccnc2)O1` [Example 198], the EC50 was under 100 nM. With `N#Cc1cccc(C#Cc2cc([C@H]3NC(=O)O[C@@H]3c3cccnc3)ccn2)c1` [Example 255] the EC50 was over 1000 nM. `O=C1N[C@H](c2cccc(C#Cc3ncccc3F)n2)[C@@H](c2ccc(F)cc2)O1` (single isomer, unassigned) [Example 370] was tested, and the EC50 was < 100 nM and 31.8 nM. With `COc1cccc([C@H]2OC(=O)N[C@@H]2c2cccc(C#Cc3ccccc3F)n2)c1` [Example 9, (4R,5R)-4-(6-((2-Fluorophenyl)ethynyl)pyridin-2-yl)-5-(3-methoxyphenyl)oxazolidin-2-one] the EC50 was over 1000 nM. `O=C1N[C@H](c2cncc(C#Cc3cccnc3)c2)[C@@H](c2ccc(F)c(F)c2)O1` [Example 173] gave an EC50 of under 100 nM. Work on `O=C1N[C@H](c2cncc(C#Cc3ncccc3F)c2)[C@@H](c2ccc(F)cc2)O1` [Example 209] yielded an EC50 of under 100 nM. With `O=C1N[C@H](c2cccc(C#Cc3cccnc3)n2)[C@@H](c2ccccc2)O1` (single isomer, unassigned) [Example 26] the EC50 was 100 to 1000 nM and 367 nM. Molecule `O=C1N[C@H](c2cncc(C#Cc3ccccn3)c2)[C@@H](c2cccc(F)c2)O1` [Example 34, (4R,5R)-5-(3-Fluorophenyl)-4-(5-(pyridin-2-ylethynyl)pyridin-3-yl)oxazolidin-2-one] has an EC50 of over 1000 nM. `O=C1N[C@H](c2cccc(C#Cc3ccccc3)c2)C(c2cccs2)O1` (single isomer, unassigned) [Example 104] gave an EC50 of under 100 nM. Work on `O=C1N[C@@H](c2cccc(C#Cc3ccccc3)c2)[C@H](c2cccs2)O1` (single isomer, unassigned) [Example 105] yielded an EC50 of over 30000 nM. `O=C1N[C@@H](c2cc(C#Cc3cccc(Cl)c3)ccn2)[C@H](c2ccc(F)cc2)O1` (single isomer, unassigned) [Example 348] showed an EC50 of over 1000 nM. In the case of `O=C1N[C@H](c2nc(C#Cc3ccccc3)ccc2F)[C@@H](c2ccccc2)O1` (single isomer, unassigned) [Example 305], the EC50 is reported as over 1000 nM. `O=C1N[C@H](c2cccc(C#Cc3ccccn3)c2)[C@@H](c2ccncc2)O1` [Example 233] gave an EC50 of under 100 nM.
